Source: patent US8163766B2, “Beta-secretase modulators and methods of use” (Amgen Inc., priority 2005, dated 2012)

These compounds were tested on Aβ 40 in conditioned media of cells stably expressing Amyloid Precursor Protein (APP) (assay: BACE Cell-Based Assay (Aβ40 in conditioned medium, sandwich ELISA)). Settings: 24 hours of incubation with the test compounds, Aβ 40 by sandwich ELISA, read-out: IC50 values in the cell-based assay (inhibition of Aβ 40).
Protocol: The cell-based assay measures inhibition or reduction of Aβ40 in conditioned medium of test compound treated cells, which express amyloid precursor protein.
Cells stably expressing Amyloid Precursor Protein (APP) were plated at a density of 40K cells/well in 96 well plates (Costar). The cells were cultivated for 24 h at 37° C. and 5% CO2 in DMEM supplemented with 10% FBS. The test compounds were then added to cells in 10-point dose response concentrations with the starting concentration being either 100 μM or 10 μM. The compounds were diluted from stock solutions in DMSO and the final DMSO concentration of the test compounds on cells was 0.1%. After 24 hours of incubation with the test compounds the supernatant conditioned media was collected and the Aβ 40 levels were determined using a sandwich ELISA. The IC50 of the compound was calculated from the percent of control or percent inhibition of Aβ 40 as a function of the concentration of the test compound.
The sandwich ELISA to detect Aβ 40 was performed in 96 well microtiter plates, which were pre-treated with goat anti-rabbit IgG (Pierce). The capture and detecting antibody pair that were used to detect Aβ 40 from cell supernatants were affinity purified pAb40 (Biosource) and biotinylated 6E10 (Signet Labs Inc.), respectively. The optimal concentration for the pAb40 antibody was 3 μg/ml in Superblock/TBS (Pierce) that was supplemented with 0.05% Tween 20 (Sigma). Optimal concentration for the detection antibody 6E10-biotinylated was […] in Superblock/TBS (Pierce) that had been supplemented with 2% normal goat serum and 2% normal mouse serum.
Cellular supernatants were incubated with the capture antibody for 3 h at 4° C., followed by 3 wash steps in TBS-tween (0.05%). The detecting antibody incubation was for 2 h at 4° C., again followed by the wash steps as described previously. The final readout of the ELISA is Time-Resolved Fluorescence (counts per minute) using Delfia reagents Streptavidin-Europium and Enhancement solutions (Perkin Elmer) and the Victor 2 multilabel counter (Perkin Elmer).

| SMILES | IC50 [µM] |
| --- | --- |
| CC(C)c1ccc2c(c1)[C@@H](NC[C@@H](O)[C@H](Cc1ccccc1)NC(=O)c1cc(N3CCCC3=O)c(=O)n(C3CCCC3)c1)CC1(CCCC1)O2 [Example 137, 1-cyclopentyl-N-((2S,3R)-4-((S)-2,2-spirocyclopentyl-6-iso-propylchroman-4-ylamino)-3-hydroxy-1-phenylbutan-2-yl)-6-oxo-5-(2-oxopyrrolidin-1-yl)-1,6-dihydropyridine-3-carboxamide] | ≤ 5 |
| CC(C)c1ccc2c(c1)[C@@H](NC[C@@H](O)[C@H](Cc1ccccc1)NC(=O)c1ccc(=O)n(C3CCCC3)c1)CC1(CCCC1)O2 [Example 138, 1-cyclopentyl-N-((2S,3R)-4-((S)-2,2-spirocyclopentyl-6-iso-propylchroman-4-ylamino)-3-hydroxy-1-phenylbutan-2-yl)-6-oxo-1,6-dihydropyridine-3-carb oxamide] | ≤ 5 |
| CCc1ccc2c(c1)[C@@H](NC[C@@H](O)[C@H](Cc1ccccc1)NC(=O)c1cc(N3CCCC3=O)c(=O)n(C3CCCC3)c1)CC1(CCCC1C)O2 (stereo partly drawn) [Example 140, 1-cyclopentyl-N-((2S,3R)-4-((S)-6-ethyl-2,2-(-methyl)-spirocyclopentylchroman-4-ylamino)-3-hydroxy-1-phenylbutan-2-yl)-6-oxo-5-(2-oxopyrrolidin-1-yl)-1,6-dihydropyridine-3-carboxamide] | ≤ 5 |
| CCc1ccc2c(c1)[C@@H](NC[C@@H](O)[C@H](Cc1ccccc1)NC(=O)c1nn(-c3ccccc3)c(=O)cc1Cl)CC1(CCCC1)O2 [Example 142, 4-chloro-N-((2S,3R)-4-((S)-6-ethyl-2,2-spirocyclopentylchroman-4-ylamino)-3-hydroxy-1-phenylbutan-2-yl)-6-oxo-1-phenyl-1,6-dihydropyridazine-3-carboxamide] | ≤ 5 |
| CCc1ccc2c(c1)[C@@H](NC[C@@H](O)[C@H](Cc1ccccc1)NC(=O)c1ccc(=O)n(-c3ccccc3)n1)CC1(CCC1)O2 [Example 146, N-((2S,3R)-4-((S)-6-ethyl-2,2-spirocyclobutylchroman-4-ylamino)-3-hydroxy-1-phenylbutan-2-yl)-6-oxo-1-phenyl-1,6-dihydropyridazine-3-carboxamide] | ≤ 5 |
| CCc1ccc2c(c1)[C@@H](NC[C@@H](O)[C@H](Cc1ccccc1)NC(=O)c1nn(-c3ccccc3)c(=O)cc1Cl)CC1(CCC1)O2 [Example 147, 4-chloro-N-((2S,3R)-4-((S)-6-ethyl-2,2-spirocyclobutylchroman-4-ylamino)-3-hydroxy-1-phenylbutan-2-yl)-6-oxo-1-phenyl-1,6-dihydropyridazine-3-carboxamide] | ≤ 5 |
| O=C(N[C@@H](Cc1ccccc1)[C@H](O)CN[C@H]1CC2(CCCC2)Oc2ccccc21)c1cc(N2CCCC2=O)c(=O)n(C2CCCC2)c1 [Example 148, 1-cyclopentyl-N-((2S,3R)-4-((S)-2,2-spirocyclopentylchroman-4-ylamino)-3-hydroxy-1-phenylbutan-2-yl)-6-oxo-5-(2-oxopyrrolidin-1-yl)-1,6-dihydropyridine-3-carboxamide] | ≤ 5 |
| O=C(N[C@@H](Cc1ccccc1)[C@H](O)CN[C@H]1CC2(CCCC2)Oc2ccccc21)c1cc(-c2ccccn2)c(=O)n(C2CCCC2)c1 [Example 150, 1-cyclopentyl-N-((2S,3R)-4-((S)-2,2-spirocyclopentylchroman-4-ylamino)-3-hydroxy-1-phenylbutan-2-yl)-6-oxo-5-(pyridin-2-yl)-1,6-dihydropyridine-3-carboxamide] | ≤ 5 |
| CCc1ccc2c(c1)[C@@H](NC[C@@H](O)[C@H](Cc1ccccc1)NC(=O)c1ccc(=O)n(C3CCCCC3)c1)CC1(CCCC1)O2 [Example 160] | ≤ 5 |
| CCc1ccc2c(c1)[C@@H](NC[C@@H](O)[C@H](Cc1ccccc1)NC(=O)c1ccc(=O)n(C3CCCC3)c1)CC(C)(C)O2 [Example 163] | ≤ 5 |

More lines, now with the values ahead:

| IC50 [µM] | SMILES |
| --- | --- |
| ≤ 5 | CCc1ccc2c(c1)[C@@H](NC[C@@H](O)[C@H](Cc1ccccc1)NC(=O)c1ccc(=O)n(C3CCCC3)c1)CC1(CCCC1C)O2 (stereo partly drawn) [Example 141, 1-cyclopentyl-N-((2S,3R)-4-((S)-6-ethyl-2,2-(-methyl)-spirocyclopentylchroman-4-ylamino)-3-hydroxy-1-phenylbutan-2-yl)-6-oxo-1,6-dihydropyridine-3-carboxamide] |
| ≤ 5 | CC(C)c1ccc2c(c1)[C@@H](NC[C@@H](O)[C@H](Cc1ccccc1)NC(=O)c1nn(-c3ccccc3)c(=O)cc1Cl)CC1(CCCC1)O2 [Example 144, 4-chloro-N-((2S,3R)-3-hydroxy-4-((S)-6-isopropyl-2,2-spirocyclopentylchroman-4-ylamino)-1-phenylbutan-2-yl)-6-oxo-1-phenyl-1,6-dihydropyridazine-3-carb oxamide] |
| ≤ 5 | O=C(N[C@@H](Cc1ccccc1)[C@H](O)CN[C@H]1CC2(CCCC2)Oc2ccccc21)c1ccc(=O)n(C2CCCC2)c1 [Example 149, 1-cyclopentyl-N-((2S,3R)-4-((S)-2,2-spirocyclopentylchroman-4-ylamino)-3-hydroxy-1-phenylbutan-2-yl)-6-oxo-1,6-dihydropyridine-3-carboxamide] |
| ≤ 5 | CCc1ccc2c(c1)[C@@H](NC[C@@H](O)[C@H](Cc1ccccc1)NC(=O)c1ccc(=O)n(C3CCCC3)n1)CC1(CCC1)O2 [Example 151, 1-cyclopentyl-N-((2S,3R)-4-((S)-6-ethyl-2,2-spirocyclo-butylchroman-4-ylamino)-3-hydroxy-1-phenylbutan-2-yl)-6-oxo-1,6-dihydropyridazine-3-carboxamide] |
| ≤ 5 | O=C(N[C@@H](Cc1ccccc1)[C@H](O)CN[C@H]1CC2(CCC2)Oc2ccccc21)c1cc(N2CCCC2=O)c(=O)n(C2CCCC2)c1 [Example 152, 1-cyclopentyl-N-((2S,3R)-4-((S)-2,2-spirocyclobutylchroman-4-ylamino)-3-hydroxy-1-phenylbutan-2-yl)-6-oxo-5-(2-oxopyrrolidin-1-yl)-1,6-dihydropyridine-3-carboxamide] |
| ≤ 5 | O=C(N[C@@H](Cc1ccccc1)[C@H](O)CN[C@H]1CC2(CCC2)Oc2ccccc21)c1ccc(=O)n(C2CCCC2)c1 [Example 153, 1-cyclopentyl-N-((2S,3R)-4-((S)-2,2-spirocyclobutylchroman-4-ylamino)-3-hydroxy-1-phenylbutan-2-yl)-6-oxo-1,6-dihydropyridine-3-carboxamide] |
| ≤ 5 | CCc1ccc2c(c1)[C@@H](NC[C@@H](O)[C@H](Cc1ccccc1)NC(=O)c1cn(C3CCCC3)c(=O)c3ccccc13)CC1(CCCC1)O2 [Example 158, 2-cyclopentyl-N-((2S,3R)-4-((S)-6-ethyl-2,2-spirocyclopentylchroman-4-ylamino)-3-hydroxy-1-phenylbutan-2-yl)-1-oxo-1,2-dihydroisoquinoline-4-carboxamide] |
| ≤ 5 | CCc1ccc2c(c1)[C@@H](NC[C@@H](O)[C@H](Cc1ccccc1)NC(=O)c1cc(-c3ccccc3F)c(=O)n3c1CCC3C)CC1(CCCC1)O2 (some centres unmarked) [Example 159] |
| ≤ 5 | CCc1ccc2c(c1)[C@@H](NC[C@@H](O)[C@H](Cc1ccccc1)NC(=O)c1ccc(=O)n(C3CCCC(C)C3)c1)CC1(CCCC1)O2 (some centres unmarked) [Example 161] |
| ≤ 5 | CCc1ccc2c(c1)[C@@H](NC[C@@H](O)[C@H](Cc1ccccc1)NC(=O)c1cn(C3CCCC3)c(=O)c3ccccc13)CC1(CCC1)O2 [Example 162] |
